Among the data in US6376670B1, “Quinoline-indole antimicrobial agents, uses and compositions related thereto” (Sepracor Inc., priority 1997, dated 2002) are MIC values, retold here.

Test in all cases: Determination of MIC values (BHI broth, 96 well microtiter plate)
What all share (format): cell-based

Test [1] relates to Streptococcus pneumoniae. Particulars: Streptococcus pneumoniae, BHI broth, read-out: MIC S. pneu. Put shortly: (§1)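 Broth microdilution in BHI broth used final compound concentrations of 25 to 0.39 μg/mL, diluted from DMSO solutions. Inoculum was 10^5–10^6 cells/mL from cultures grown to a 0.5 McFarland standard. Plates were incubated overnight (~16 h) at 37 °C in about 7–10% CO2; MIC was the lowest concentration with no visible growth.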

Test [2] has as its system methicillin-resistant Staphylococcus aureus (MRSA). As to conditions: Staphylococcus aureus, MRSA, BHI broth, read-out: MIC MRSA. Summed up:
as §1

Test [3] has as its system vancomycin-resistant Enterococcus spp. (VRE). As to conditions: Enterococcus, VRE, BHI broth, read-out: MIC VREF. Summed up: as §1
[4] abbreviates: 37° C., overnight (about 16 hours).
[5] abbreviates: 16 h, 37° C., overnight (about 16 hours).

Read-outs that look alike come from different tables or passages of the source.

A word on the MIC: it is the lowest concentration found to suppress growth. As for `COc1ccc2nc(-c3c[nH]c4ccc(OCc5ccccc5)cc34)ccc2c1` [Example 450], the MIC in test [1] (37° C., about 16 hours) was over 25 mg/L; in test [2] (16 h, 37° C., about 16 hours), over 25 mg/L; in test [3] (16 h, 37° C., about 16 hours), over 25 mg/L.

As to `Cc1ccc2c(C(=O)NCc3ccc(CN)cc3)cc(-c3c[nH]c4ccc(Br)cc34)nc2c1` [Example 161], the MIC in test [1] (setting [4]), in test [2] (setting [5]) and in test [3] (setting [5]) was under 7 mg/L throughout.

As to `COc1ccc2[nH]cc(-c3cc(Cl)c4ccccc4n3)c2c1` [Example 348], the minimum inhibitory concentration (MIC) in test [1] (S. pneu, overnight 37° C.) is under 7 mg/L; in test [2] (overnight 37° C.) it was under 7 mg/L; in test [3] (VREF, overnight 37° C.) it was over 25 mg/L.

`NCCNC(=O)c1cc(-c2c[nH]c3ccc(Br)cc23)nc2ccc(C#CCN3CC=CCC3)cc12` [Example 526]: the MIC was under 7 mg/L in test [1] (37° C., about 16 hours); under 7 mg/L in test [2] (16 h, 37° C., about 16 hours); under 7 mg/L in test [3] (16 h, 37° C., about 16 hours).

In the case of `CNCCN(C)C(=O)c1cc(-c2c[nH]c3ccc(Br)cc23)nc2cc(Cl)c(C#CCN3CCCCC3)cc12` [Example 513], the minimum inhibitory concentration (MIC) in test [1] (37° C., about 16 hours) is under 7 mg/L; in test [2] (16 h, 37° C., about 16 hours) it was under 7 mg/L; in test [3] (16 h, 37° C., about 16 hours), under 7 mg/L.

Take `Clc1ccc2nc(-c3c[nH]c4ccccc34)ccc2c1` [Example 164]: the minimum inhibitory concentration (MIC) in test [1] (setting [4]) was under 7 mg/L; in test [2] (setting [5]), under 7 mg/L; in test [3] (setting [5]), under 5 mg/L.

Take `COc1ccc2[nH]cc(-c3ccc4cc(Cl)ccc4n3)c2c1` [Example 290]: the MIC is over 25 mg/L in test [1] (S. pneu, overnight 37° C.); over 25 mg/L in test [2] (overnight 37° C.); over 25 mg/L in test [3] (VREF, overnight 37° C.).

Regarding `NCc1ccc(CNC(=O)c2cc(-c3c[nH]c4ccc(Cl)cc34)nc3ccc(I)cc23)cc1` [Example 224], the minimal inhibitory concentration (MIC) in test [1] (S. pneu, overnight 37° C.) was under 7 mg/L; in test [2] (overnight 37° C.) it was under 7 mg/L; in test [3] (VREF, overnight 37° C.) it was under 7 mg/L.

Consider `CNCCN(C)C(=O)c1cc(-c2c[nH]c3ccc(Br)cc23)nc2ccc(I)cc12` [Example 502], for which the MIC is under 7 mg/L in test [1] (37° C., about 16 hours); under 7 mg/L in test [2] (16 h, 37° C., about 16 hours); under 7 mg/L in test [3] (16 h, 37° C., about 16 hours).

As for `NCCCCNC(=O)c1cc(-c2c[nH]c3cc(F)ccc23)nc2cc(F)ccc12` [Example 496], the MIC in test [1] (37° C., about 16 hours) was under 25 mg/L; in test [2] (16 h, 37° C., about 16 hours), under 25 mg/L; in test [3] (16 h, 37° C., about 16 hours), over 25 mg/L.

Take `Cn1cc(-c2cc(C(=O)NCc3ccc(CN)cc3)c3ccc(I)cc3n2)c2cc(Br)ccc21` [Example 328]: the MIC was under 7 mg/L in test [1] (S. pneu, overnight 37° C.); over 25 mg/L in test [2] (overnight 37° C.); over 25 mg/L in test [3] (VREF, overnight 37° C.).

On to `Cn1cc(-c2cc(C(=O)NCCN)c3cc(C#CCNCCc4ccccc4)ccc3n2)c2cc(Br)ccc21` [Example 399], for which the MIC in test [1] (S. pneu, overnight 37° C.) was under 7 mg/L; in test [2] (overnight 37° C.) it was under 7 mg/L; in test [3] (VREF, overnight 37° C.), under 7 mg/L.

On to `NCc1ccc(COCc2cc(-c3c[nH]c4ccc(Br)cc34)nc3ccc(C(F)(F)F)cc23)cc1` [Example 154], for which the MIC in test [1] (setting [4]), in test [2] (setting [5]) and in test [3] (setting [5]) was under 7 mg/L each time.

On to `CN1CCN(CC#Cc2ccc3nc(-c4cn(C)c5ccc(Br)cc45)cc(C(=O)NCc4ccc(CN)cc4)c3c2)CC1` [Example 395], for which the MIC in test [1] (S. pneu, overnight 37° C.) is under 25 mg/L; in test [2] (overnight 37° C.), under 7 mg/L; in test [3] (VREF, overnight 37° C.) it was under 25 mg/L.

`NCc1ccc(CNC(=O)c2cc(-c3c[nH]c4ccc(Br)cc34)nc3cc(C#CCN4CC=CCC4)ccc23)cc1` [Example 304]: the MIC is under 7 mg/L in test [1] (S. pneu, overnight 37° C.); under 7 mg/L in test [2] (overnight 37° C.); under 7 mg/L in test [3] (VREF, overnight 37° C.).

Consider `Cc1cccc2c(-c3ccc4cc(Cl)ccc4n3)cn(C)c12` [Example 217], for which the MIC is under 7 mg/L in test [1] (S. pneu, overnight 37° C.); under 25 mg/L in test [2] (overnight 37° C.); under 25 mg/L in test [3] (VREF, overnight 37° C.).

As to `Cc1ccc2nc(-c3c(C)[nH]c4ccc(Cl)cc34)ccc2c1` [Example 437], the MIC in test [1] (37° C., about 16 hours) was under 7 mg/L; in test [2] (16 h, 37° C., about 16 hours), under 7 mg/L; in test [3] (16 h, 37° C., about 16 hours) it was over 25 mg/L.

Take `Clc1cc(-c2c[nH]c3ccccc23)nc2ccccc12` [Example 451]: the MIC is under 7 mg/L in test [1] (37° C., about 16 hours); under 7 mg/L in test [2] (16 h, 37° C., about 16 hours); over 25 mg/L in test [3] (16 h, 37° C., about 16 hours).

Take `NCc1cccc(CNC(=O)c2cc(-c3c[nH]c4ccc(Br)cc34)nc3cc(Cl)cc(Cl)c23)c1` [Example 246]: the MIC was under 7 mg/L in test [1] (S. pneu, overnight 37° C.); under 7 mg/L in test [2] (overnight 37° C.); under 7 mg/L in test [3] (VREF, overnight 37° C.).
